In patent publication US20220054543A1, “Enteric Use of Potassium Permanganate in Humans and Animals” (priority 2020, published 2022):

Test system: common human coronaviruses (229E, NL63, OC43, and HKU1)
Experiment: enteric administration to humans, treating common human coronavirus infections
Assay type: in vivo

Measured: effective in treating infections resulting from the common human coronaviruses

Potassium permanganate
effective: adult humans, inhalation by cold-mist inhaler or nebulizer, 3.0 ml of 1:10,000 dilution (0.1 mg/mL solution) per day for three days | adult humans, inhalation by cold-mist inhaler or nebulizer, 3.0 ml of 1:50,000 dilution (0.02 mg/mL solution) per day for three days | adult humans, inhalation by cold-mist inhaler or nebulizer, 3.0 ml of 1:100,000 dilution (0.01 mg/mL solution) per day for three days | humans, intravenous, 10.0 cc per 45.4 kg of 1:10,000 dilution (0.1 mg/mL solution) per day for three days | humans, intravenous, 10.0 cc per 45.4 kg of 1:50,000 dilution (0.02 mg/mL solution) per day for three days | humans, intravenous, 10.0 cc per 45.4 kg of 1:100,000 dilution (0.01 mg/mL solution) per day for three days | humans, oral, 1 mg/kg per day for three days | humans, oral, 1 mg/kg per day on a daily basis (prophylactic) | humans, oral, 5 mg/kg per day for three days | humans, oral, 10 mg/kg per day for three days
